Measurements published in patent publication US8486991B2, “Enantiomerically pure phosphoindoles as HIV inhibitors” (Idenix Pharmaceuticals, Inc., priority 2006, dated 2013).
Where “and” joins values, the source holds several entries; their conditions need not be identical. Equal entries are not always repeated. Where two headings read alike, the source gives them in different places.

Assays:
[1] = biological target: T1, HIV-1 RT V106M mutant enzyme (Human immunodeficiency virus type 1 group M subtype B, UniProt P03366, V705M); experiment: biochemical; conditions: for Average Fold Changes ± Standard Deviation, V106M: Table 4
T1 construct: Antiviral in vitro activity against site-directed mutant HIV-1 RT enzymes
Excerpt: (§1) In Vitro Antiviral Activity Against Additional Mutant HIV RT Enzymes
(§2) The studies are summarized in the text that follows.

[2] = biological target: T2, HIV-1 RT M184V mutant enzyme (Human immunodeficiency virus type 1 group M subtype B, UniProt P03366, M783V); experiment: biochemical; conditions: for Average Fold Changes ± Standard Deviation, M184V: Table 4
T2 construct: Antiviral in vitro activity against site-directed mutant HIV-1 RT enzymes
Excerpt: as §1, §2

[3] = biological target: T3, HIV-1 RT L1001/K103N (L100I/K103N) mutant enzyme (Human immunodeficiency virus type 1 group M subtype B, UniProt P03366, K702N/L699I); experiment: biochemical; conditions: for Average Fold Changes ± Standard Deviation, L1001/K103N: Table 4
T3 construct: Antiviral in vitro activity against site-directed mutant HIV-1 RT enzymes
Excerpt: as §1, §2

[4] = biological target: T4, HIV-1 RT L1001 (L100I) mutant enzyme (Human immunodeficiency virus type 1 group M subtype B, UniProt P03366, L699I); experiment: biochemical; conditions: for Average Fold Changes ± Standard Deviation, L1001: Table 4
T4 construct: Antiviral in vitro activity against site-directed mutant HIV-1 RT enzymes
Excerpt: as §1, §2

[5] = biological target: T5, HIV-1 RT V1081 (V108I) mutant enzyme (Human immunodeficiency virus type 1 group M subtype B, UniProt P03366, V707I); experiment: biochemical; conditions: for Average Fold Changes ± Standard Deviation, V1081: Table 4
T5 construct: Antiviral in vitro activity against site-directed mutant HIV-1 RT enzymes
Excerpt: as §1, §2

[6] = biological target: T6, HIV-1 RT Y188L mutant enzyme (Human immunodeficiency virus type 1 group M subtype B, UniProt P03366, Y787L); experiment: biochemical; conditions: for Average Fold Changes ± Standard Deviation, Y188L: Table 4
T6 construct: Antiviral in vitro activity against site-directed mutant HIV-1 RT enzymes
Excerpt: as §1, §2

[7] = biological target: T7, HIV-1 RT E138K mutant enzyme (Human immunodeficiency virus type 1 group M subtype B, UniProt P03366, E737K); experiment: biochemical; conditions: for Average Fold Changes ± Standard Deviation, E138K: Table 4
T7 construct: Antiviral in vitro activity against site-directed mutant HIV-1 RT enzymes
Excerpt: as §1, §2

CYP3A4 = CYP3A4 (Homo sapiens, UniProt P08684); experiment: Recombinant CYP450 inhibition, fluorometric, CYP3A4; format: in vitro ADME; design: from tissue; host or cells: pooled human liver microsomes
Sequence of CYP3A4 (P08684 whole entry, the tested form may be a part): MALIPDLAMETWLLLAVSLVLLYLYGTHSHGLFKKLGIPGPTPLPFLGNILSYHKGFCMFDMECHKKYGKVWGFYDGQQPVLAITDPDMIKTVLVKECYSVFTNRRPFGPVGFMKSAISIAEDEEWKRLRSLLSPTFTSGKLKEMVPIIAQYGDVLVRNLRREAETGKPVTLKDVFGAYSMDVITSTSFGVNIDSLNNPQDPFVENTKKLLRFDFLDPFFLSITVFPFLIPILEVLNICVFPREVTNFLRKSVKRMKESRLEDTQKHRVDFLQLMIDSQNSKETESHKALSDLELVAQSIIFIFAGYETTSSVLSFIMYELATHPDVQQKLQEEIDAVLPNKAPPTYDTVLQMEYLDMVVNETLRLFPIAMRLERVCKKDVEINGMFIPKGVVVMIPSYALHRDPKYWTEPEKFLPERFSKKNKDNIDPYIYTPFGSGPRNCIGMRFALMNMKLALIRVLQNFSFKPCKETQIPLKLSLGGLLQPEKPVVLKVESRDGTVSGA
Procedure: (§3) Compounds were assayed using recombinant human microsomal proteins with fluorometric substrates. Signal was measured with a Fusion plate reader utilizing the appropriate excitation and emission wavelength set to detect the specific metabolite: […]

cynomolgus monkeys = experiment: 14-day oral toxicity, monkeys; format: in vivo, cynomolgus monkey; conditions: for effects on food consumption or body weight: once daily oral gavage 14 days, up to 500 (I) or 450 (III) mg/kg/day
Procedure: Sprague-Dawley rats and cynomolgus monkeys were dosed once daily for 14 days via oral gavage with compound I or compound III or dose vehicle (68% Capmul PG-8, 20% PEG 400, 2% Tween 20, and 10% Labrasol) according to GLP. There were 10 male and 10 female rats, and there were 3 male and 3 female monkeys. Rats and monkeys were dosed with 0, 50, 150 or 500 mg/kg/day compound I or with 0, 50, 150, 450 mg/kg/day compound III.
Toxicity was assessed using clinical observations, body weights, food consumption, and clinical pathology (hematology, coagulation, and serum chemistry).
A comprehensive necropsy and gross pathological examination was performed on all animals and selected organs and tissues were collected for histological evaluation.
Determinations of hematocrit, hemoglobin concentration, erythrocyte count, total leukocyte count, and platelet count were conducted on all samples. Leukocyte differential and morphologic assessments were performed.
Clinical biochemistry determinations included activities of alanine aminotransferase (ALT), aspartate aminotransferase (AST), gamma-glutamyltranspeptidase (GGT), and alkaline phosphatase (ALP) and concentrations of blood urea nitrogen (BUN), creatinine, total protein, albumin, globulin, glucose, cholesterol, triglycerides, total bilirubin, and electrolyte levels (Na, K, P, Cl, Ca).
Urine samples (monkeys only) were evaluated macroscopically and microscopically and tested for pH, bilirubin, glucose, protein, ketones, blood, urobilinogen, nitrites, leukocytes, and specific gravity.

CYP1A2 = biological target: T8, CYP1A2 (Homo sapiens, UniProt P05177); experiment: Recombinant CYP450 inhibition, fluorometric, CYP1A2; format: in vitro ADME; design: from tissue; host or cells: pooled human liver microsomes
T8 sequence (P05177 1-516): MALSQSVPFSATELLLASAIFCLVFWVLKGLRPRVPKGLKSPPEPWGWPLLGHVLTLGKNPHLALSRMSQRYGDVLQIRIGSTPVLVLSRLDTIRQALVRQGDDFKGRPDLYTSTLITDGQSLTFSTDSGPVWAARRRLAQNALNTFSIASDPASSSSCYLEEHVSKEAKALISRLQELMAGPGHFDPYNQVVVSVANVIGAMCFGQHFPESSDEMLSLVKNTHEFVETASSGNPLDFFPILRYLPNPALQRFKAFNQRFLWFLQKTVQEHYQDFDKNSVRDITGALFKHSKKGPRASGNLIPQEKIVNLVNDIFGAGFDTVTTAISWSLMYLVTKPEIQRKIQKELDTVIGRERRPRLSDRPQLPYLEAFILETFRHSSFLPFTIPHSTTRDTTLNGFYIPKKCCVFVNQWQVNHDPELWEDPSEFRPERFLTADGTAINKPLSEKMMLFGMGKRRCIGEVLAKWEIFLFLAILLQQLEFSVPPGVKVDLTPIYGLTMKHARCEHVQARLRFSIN
Procedure: as §3

MT-4 cells = experiment: Cellular cytotoxicity, 4 days, MTS, MT-4; conditions: for CC50: read-out: Average CC50 Values ± Standard Deviation, MT-4, Table 21, 4 days, MTS
Procedure: Following drug exposure for 4 days, cell viability was measured by MTS staining and CC50 values were determined. Drug concentrations ranged from 0.005 μM to 100 μM.
The preceding data, allows us to calculate selectivity index (SI) values, based on the ratio of CC50 to EC50 in MT-4 cells (the standard assay used in this work).

[8] = In vivo pharmacokinetics, rats; design: species or system rat; conditions: plasma
Procedure: All animals received a single oral or intravenous dose of compound in either polyethylene glycol 400 (PEG400) or a mixture of 10% ethanol (EtOH), 10% dimethylacetamine (DMA) and 80% PEG400 at the indicated dose level. Plasma concentration data were acquired using sensitive and specific LC-MS/MS methods. Pharmacokinetic data from the toxicity study included aspects of gender differences, variability and exposure.
Blood samples (1.5-2.5 mL) were collected in heparinized tubes at 0 (pre-dose), 5 (IV only), 10, 20, 30 min, 1, 2, 4, 6, 8, 12 (PO only) and 24 hr after dosing. Plasma was separated and stored at −70° C. until analysis.
Concentrations of unlabeled compound I and compound III within plasma samples and excreta from rat, dog and monkey PK studies were identified through high performance liquid chromatographic (HPLC) methods that incorporated tandem mass spectrometric detection (LC-MS/MS).
The absolute oral bioavailability was determined in pharmacokinetic by comparison of AUC values of parent compound following single intravenous and oral doses of in rats (compound III only), dogs and monkeys.

Compound | IC50 [1] | Average Fold Changes ± Standard Deviation, V106M [1] | IC50 [2] | Average Fold Changes ± Standard Deviation, M184V [2] | IC50 [3] | Average Fold Changes ± Standard Deviation, L1001/K103N [3] | IC50 [4] | Average Fold Changes ± Standard Deviation, L1001 [4] | IC50 [5] | Average Fold Changes ± Standard Deviation, V1081 [5] | IC50 [6] | Average Fold Changes ± Standard Deviation, Y188L [6] | IC50 [7] | Average Fold Changes ± Standard Deviation, E138K [7] | effects on food consumption or body weight (cynomolgus monkeys) | Selectivity Index (SI), CC50/EC50 in MT-4 cells (MT-4 cells) | CC50 (MT-4 cells) | also measured
CO[P@](=O)(c1cc(C)cc(/C=C/C#N)c1)c1c(C(N)=O)[nH]c2ccc(Cl)c(F)c12 [Compound I, (2-Carbamoyl-5-chloro-4-fluoro-1H-indol-3-yl)-[3-((E)-2-cyano-vinyl)-5-methyl-phenyl]-(R)-phosphinic acid methyl ester] | 230 ± 60 nM | 1.2 ± 0.5 fold | 290 ± 80 nM | 1.7 ± 0.5 fold | 430 ± 330 nM | 2.4 ± 1.2 fold | 160 ± 30 nM | 0.5 ± 0.2 fold | 1200 ± 710 nM | 4.0 ± 5.3 fold | 1250 ± 380 nM | 6.0 ± 1.7 fold | 4670 ± 910 nM | 15.5 ± 6.8 fold | No effects | > 18,000 and > 22,000 | 18600 ± 3100 nM | IC50 (CYP3A4): 1460 ± 390 nM; inhibition at 20 µM (CYP1A2; human, recombinant enzyme, 20 μM, read-out: percentage of inhibition at the highest concentration tested, CYP1A2): 17.5%
CO[P@](=O)(c1cc(C)cc(/C=C/C#N)c1)c1c(C(N)=O)[nH]c2ccc(Cl)cc12 [Compound III, (2-Carbamoyl-5-chloro-1H-indol-3-yl)-[3-((E)-2-cyano-vinyl)-5-methyl-phenyl]-(R)-phosphinic acid methyl ester] | 200 ± 60 nM | 1.0 ± 0.3 fold | 170 ± 80 nM | 0.8 ± 0.3 fold | 400 ± 260 nM | 1.8 ± 0.8 fold | 130 ± 60 nM | 0.6 ± 0.6 fold | 830 ± 350 nM | 3.8 ± 3.8 fold | 1150 ± 360 nM | 7.0 ± 5.9 fold | 2990 ± 180 nM | 13.7 ± 1.9 fold | No effects | > 22,000 and > 18,000 | 27300 ± 12900 nM | Tmax ([8]; male, Rat, 10 mg/kg PO-Fasted, 3M, mean): 24 min; bioavailability ([8]; male, Rat, 10 mg/kg PO-Fasted, 3M, IV 2 mg/kg, read-out: BA (absolute oral bioavailability)): 38%; bioavailability ([8]; rat, po, text b979, (5 mg/kg), read-out: oral bioavailability in rats, exploratory PK studies): 38%; IC50 (CYP3A4; recombinant, highest concentration tested 10 μM, read-out: IC50, CYP3A4): 2860 ± 780 nM; organ weights (cynomolgus monkeys; mid and high doses, livers microscopically unremarkable): increased liver weights; IC50 (CYP1A2; highest concentration tested 20 μM): 17600 ± 2060 nM
